Test results taken from patent publication US5750546A, “2-(2, 3, 5, 6-tetrafluoro-4-pyridyl)-1, 2, 5-thiadiazolidin-3-one 1, 1-dioxides and compositions and method of use thereof” (Sanofi Winthrop, Inc., priority 1994, dated 1998).

Biological target: T1, human leukocyte elastase (Homo sapiens, UniProt P08246)
T1 sequence (P08246 30-267): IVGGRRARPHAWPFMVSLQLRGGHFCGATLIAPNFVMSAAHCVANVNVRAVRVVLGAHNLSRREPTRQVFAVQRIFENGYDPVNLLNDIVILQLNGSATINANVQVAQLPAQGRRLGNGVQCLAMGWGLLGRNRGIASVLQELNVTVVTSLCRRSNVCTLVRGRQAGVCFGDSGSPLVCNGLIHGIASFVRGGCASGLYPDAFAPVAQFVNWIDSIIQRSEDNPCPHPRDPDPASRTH
Assay: human leukocyte elastase inhibition assay (progress curves, MeOSuc-Ala-Ala-Pro-Val-pNA substrate)
Type: biochemical
Conditions: in vitro, pH 7.8 at 25° C., absorbance 410 nm, read-out: Ki, human leukocyte elastase inhibitory activity
Protocol: The test compound (inhibitor) is dissolved in DMSO in a vial to produce an inhibitor stock solution which has a concentration in the range of 200-1000μM. The inhibitor stock solution is diluted (1:4, 1:16 and 1:64) into assay vials (vials 1, 2 and 3 respectively) containing 2.4 mL of buffer solution (50 mM N-[2-hydroxyethyl] piperazine-N'-[2-ethanesulfonic acid]/NaOH, 500 mM NaCl, pH 7.8 at 25° C.) and DMSO is added so that the total volume in each vial is 3.2 mL. 70 μL, 50 μL, 35 μL and 25 μL of inhibitor from assay vial 1 is placed into the first four wells of a 96-well microtiter plate and each well is made up to 90 μL total volume with the addition of a 25% DMSO/buffer solution. […]
The 96-well microtiter plate is placed into a Microplate Reader #89815A spectrophotometer and 110 μL of the enzyme solution (prepared as follows: a mixture of 20 mL of buffer solution and 20 mg of bovine serum albumen is gently vortexed in a scintillation vial and 5 μL HLE stock solution (1 mg/mL dissolved in deionized water) is added) is added simultaneously to each of the 16 wells. Each of the solutions in the wells is throughly mixed and then the time-dependent absorbance data is collected at an absorbance of 410 nm until the assay is complete. […]
A plot of the absorbance versus time data thus obtained affords progress curves the final slope of which is equal to the final steady-state velocities (VF). […]

Ki	SMILES
> 0.1 µM	CC(C)CCC1C(=O)N(c2c(F)c(F)nc(F)c2F)S(=O)(=O)N1C (centres unmarked) [2(h), 2-(2,3,5,6-tetrafluoro-4-pyridyl)-5-methyl-4-(3-methylbutyl)-1,2,5-thiadiazolidin-3-one 1,1-dioxide]
0.01 µM	CCCC1C(=O)N(c2c(F)c(F)nc(F)c2F)S(=O)(=O)N1C (centres unmarked) [Example 1(g), 2-(2,3,5,6-tetrafluoro-4-pyridyl)-5-methyl-4-propyl-1,2,5-thiadiazolidin-3-one 1,1-dioxide]
